# Laboratory results taken from patent US20240374487A1, “ANTI-AGING AGENT, COSMETIC PRODUCT, WET TOWEL, AND HYGIENE PRODUCT” (VB JAPAN TECHNOLOGY CO., LTD., priority 2021, published 2024).
# How the values were obtained:
# intracellular ROS [1] = test: Intracellular ROS production against hydrogen peroxide (DCF-DA); assay type: cell-based, human
# Procedure: Measurement of intracellular ROS was performed using fluorescence using dichlorofluorescin diacetate (DCF-DA; Invitrogen, Carlsbad, CA, USA). Specifically, cells were washed with PBS, and then incubated with 10 μM DCF-DA at 37° C. for 20 minutes. The intracellular ROS level was measured at an excitation wavelength of 525 nm using fluorescence intensity using the micro plate reader (SYNERGY/HT, BioTek, Japan).
# (§1) Normal human dermal fibroblasts were cultured for 2 hours in a culture solution to which 0.2 mM hydrogen peroxide was added, then washed off with PBS, and replaced with a normal medium to continue the cultivation. VB2 and VB3 were each added at any timing before or after hydrogen peroxide was added, and co-cultured for 4 hours. Thereafter, the cells or the culture solution were recovered.
# According to the procedure described in “Measurement of Cell Viability” above, normal human dermal fibroblasts were treated and cultured (co-culture), and cells or the culture solution was recovered. The concentrations of VB2 and VB3 used and the notation of the samples in FIGS. 6 and 7, which are graphs showing the results, are also similar to the above “Measurement of Cell Viability”.
# The measurement of intracellular ROS and the measurement of superoxide (SOD) were performed by the same methods as the methods described in “Measurement of Intracellular Reactive Oxygen (ROS) Production and Superoxide (SOD) against AGE” above, respectively.
# FIGS. 6 and 7 show the results of each sample when Control is 100%.
# hyaluronic acid = test: Hyaluronic acid secreted into culture supernatant (ELISA); assay type: cell-based, human
# Procedure: as §1
# (§2) According to the procedure described in “Measurement of Cell Viability” above, normal human dermal fibroblasts were treated and cultured (co-culture), and cells or the culture solution was recovered. The concentrations of VB2 and VB3 used and the notation of the samples in FIGS. 10 and 11, which are graphs showing the results, are also similar to the above “Measurement of Cell Viability”.
# (§3) The production amounts of hyaluronic acid and Elastin were measured by an ELISA method. The results of measuring the amount of hyaluronic acid secreted from normal human dermal fibroblasts into the culture supernatant by the ELISA method are shown in FIG. 10, and the results of measuring the amount of intracellular Elastin production by the ELISA method are shown in FIG. 11.
# [2] = system: normal human dermal fibroblasts; test: Cell viability under hydrogen peroxide oxidative stress (Cell counting-8 kit); assay type: cell-based; details: for cell viability, trend: 1-300 μg/mL
# Procedure: (§4) Normal human dermal fibroblasts (NHDF), juvenile foreskin (C-12300, PromoCell) were cultured in a dedicated medium, Fibroblast Growth Medium (C-23010, PromoCell) at 37° C. in a 5% CO2 incubator.
# as §1
# In FIG. 5 which is a graph showing the results, a sample obtained by adding VB2 or VB3 after adding hydrogen peroxide was denoted as “H2O2-VB2” and “H2O2-VB3”, respectively, and a sample obtained by adding hydrogen peroxide after adding VB2 or VB3 was denoted as “VB2-H2O2” and “VB3-H2O2”, respectively.
# Here, VB2 and VB3 were added at concentrations of 1 μg/mL, 10 μg/mL, 100 μg/mL, and 300 μg/mL, respectively.
# The normal human dermal fibroblasts to which neither hydrogen peroxide nor VB2 nor VB3 was added were treated in the same manner as described above, and measured as Control. In addition, a sample to which VB2 or VB3 was not added (in FIG. 5, it is denoted as “H2O2”) was also treated in the same manner as described above, and measurement was performed.
# The number of surviving cells in normal human dermal fibroblasts was measured using Cell counting −8 kit (DOJINDO: , Japan).
# SOD = SOD amount against hydrogen peroxide (SOD Assay Kit); assay type: cell-based, human; details: added before and after 0.2 mM hydrogen peroxide, 1-300 μg/mL (H2O2 only 56% of Control)
# Procedure: Superoxide (SOD) was measured using SOD Assay Kit (Cayman Chemical, Ann arbor, MI, USA). Cells that had been subjected to various treatments were incubated for 24 hours, and then a Lysis buffer was added, homogenized, and centrifuged. Then, 10 μL of each sample was mixed with 200 μL of xanthine oxidase at room temperature. After 30 minutes, the absorbance at 450 nm was measured.
# as §1
# According to the procedure described in “Measurement of Cell Viability” above, normal human dermal fibroblasts were treated and cultured (co-culture), and cells or the culture solution was recovered. The concentrations of VB2 and VB3 used and the notation of the samples in FIGS. 6 and 7, which are graphs showing the results, are also similar to the above “Measurement of Cell Viability”. […]
# FEEL-1 = FEEL-1 mRNA level by qRT-PCR in AGE-treated fibroblasts; assay type: cell-based, human; details: co-existence with AGE 100 μg/mL, 4 hours, compared with AGE single stimulation group
# Procedure: as §4
# (§5) First, as a co-existence group of VB and AGE, normal human dermal fibroblasts were treated with AGE (100 μg/mL), and the above VB2 (concentration after dilution: 115 μg/ml) and VB3 (concentration after dilution: 1000 μg/mL) diluted to an accurate 1/1000 amount were each added and retained at 37° C. for 4 hours. […]
# (§6) Then, total RNA was extracted from the cells using Trizol reagent (Ambion), and mRNA levels of AGE receptor (FEEL-1, FEEL-2, CD-36, AGE-R1, AGE-R2, AGE-R3 and RAGE) and heat shock protein (Hsp104, gp96, Hsp90, Hsp70, Hsp60, and Hsp32) were measured by qRT-PCR (one-step quantitative reverse transcription-polymerase chain reaction) method. […]
# (§7) The qRT-PCR method used for the measurement of AGE receptor, heat shock protein, aquaporin, hyaluronic acid, and Elastin will be described. In the qRT-PCR method, 500 ng of the obtained total RNA was used as a template for PCR, and one step RT-PCR capable of performing CDNA synthesis by a reverse transcription reaction (Reverse Transcriptase; RT reaction) and quantitative PCR in one test tube was performed using Luna Universal One-Step qRT-PCR Kit. […]
# intracellular ROS [3] = test: Intracellular ROS against AGE (DCF-DA fluorescence); assay type: cell-based, human; details: AGE 100 μg/mL, 4 hours, FIG. 3
# Procedure: as §4
# Normal human dermal fibroblasts were treated with AGE (100 μg/mL) and maintained at 37° C. for 4 hours with the addition of VB2 and VB3, respectively. Here, VB2 and VB3 were added at concentrations of 1 μg/mL, 10 μg/mL, 100 μg/mL, and 300 μg/mL, respectively. In FIGS. 3 and 4, which are graphs showing the results, those to which VB2was added were denoted as “VB2-AGE”, and those to which VB3 was added were denoted as “VB3-AGE”.
# As Control, measurement was also performed on normal human dermal fibroblasts which were not treated with AGE and were held at 37° C. for 4 hours without addition of VB2 or VB3, and as an AGE single stimulation group, measurement was also performed on normal human dermal fibroblasts which were treated with AGE (100 μg/mL) and were held at 37° C. for 4 hours without addition of VB2 or VB3 (in FIGS. 3 and 4, it is denoted as “AGE”.).
# Measurement of intracellular ROS was performed using fluorescence using dichlorofluorescin diacetate (DCF-DA; Invitrogen, Carlsbad, CA, USA). […] The intracellular ROS level was measured at an excitation wavelength of 525 nm using fluorescence intensity using the micro plate reader (SYNERGY/HT, BioTek, Japan).
# AQP-1 = AQP-1 mRNA level under oxidative stress (qRT-PCR); assay type: cell-based, human
# Procedure: as §1
# (§8) According to the procedure described in “Measurement of Cell Viability” above, normal human dermal fibroblasts were treated and cultured (co-culture), and cells or the culture solution was recovered. The notation of the sample in FIGS. 8 and 9, which are graphs showing the results, is also the same as in the “Measurement of Cell Viability” described above.
# (§9) The measurement of aquaporin was performed for AQP-1 and AQP-3 by a qRT-PCR method, and the measurement result was obtained by a ΔΔCt method. […] The qRT-PCR method is s specifically described in “qRT-PCR method” described later.
# (§10) The qRT-PCR method used for the measurement of AGE receptor, heat shock protein, aquaporin, hyaluronic acid, and Elastin will be described. In the qRT-PCR method, 500 ng of the obtained total RNA was used as a template for PCR, and one step RT-PCR capable of performing CDNA synthesis by a reverse transcription reaction (Reverse Transcriptase; RT reaction) and quantitative PCR in one test tube was performed using Luna Universal One-Step qRT-PCR Kit.
# (§11) As a PCR device, Thermal Cycler Dice Real Time System II manufactured by Takara was used. As one reaction system, 10 μL of Luna Universal One-Step Reaction Mix (2×), 1 μL of Luna WarmStart RT Enzyme Mix (20×), 0.8 μL of Forward primer (10 μM), 0.8 μL of Reverse primer, and Total RNA as a template for the PCR were used, and the total amount was adjusted to 20 μL in Nuclease-free Water.
# (§12) The reaction was performed under the conditions of 1 cycle of 30 seconds at 95° C., and further cycles of 5 seconds at 95° C. and 30 seconds at 60° C. for 50 cycles. A variation in mRNA expression by 4 times or more (2 cycles as PCR reaction) was determined as a significant difference.
# RAGE = RAGE mRNA level by qRT-PCR in AGE-treated fibroblasts; assay type: cell-based, human; details: co-existence with AGE 100 μg/mL, 4 hours, compared with AGE single stimulation group
# Procedure: as §4, §5, §6, §7
# [4] = system: AGE receptor (FEEL-1, FEEL-2, CD-36, AGE-R1, AGE-R2, AGE-R3 and RAGE); test: mRNA levels of AGE receptors by qRT-PCR in normal human dermal fibroblasts; assay type: cell-based; details: VB alone, no AGE, 37° C. 4 hours, compared with untreated group
# Procedure: as §4, §5, §6, §7
# AQP-3 = AQP-3 mRNA level under oxidative stress (qRT-PCR); assay type: cell-based, human
# Procedure: as §1, §8, §9, §10, §11, §12
# Elastin = test: Intracellular Elastin production (ELISA); assay type: cell-based, human
# Procedure: as §1, §2, §3
# FEEL-2 = FEEL-2 mRNA level by qRT-PCR in AGE-treated fibroblasts; assay type: cell-based, human; details: co-existence with AGE 100 μg/mL, 4 hours, compared with AGE single stimulation group
# Procedure: as §4, §5, §6, §7
# [5] = system: heat shock protein (Hsp104, gp96, Hsp90, Hsp70, Hsp60, and Hsp32); test: mRNA levels of heat shock proteins by qRT-PCR in fibroblasts; assay type: cell-based, human; details: 4 hours
# Procedure: as §4
# First, as a co-existence group of VB and AGE, normal human dermal fibroblasts were treated with AGE (100 μg/mL), and the above VB2 (concentration after dilution: 115 μg/ml) and VB3 (concentration after dilution: 1000 μg/mL) diluted to an accurate 1/1000 amount were each added and retained at 37° C. for 4 hours.
# In addition, as the VB single stimulation group, normal human dermal fibroblasts were not treated with AGE, and the above VB2 and VB3 diluted to an accurate 1/1000 amount were each added and held at 37° C. for 4 hours. Furthermore, as the AGE single stimulation group, normal human dermal fibroblasts were treated with AGE and kept at 37° C. for 4 hours without addition of VB2 or VB3. In addition, as an untreated group, normal human dermal fibroblasts were not treated with AGE, and were kept at 37° C. for 4 hours without adding VB2 or VB3.
# Then, total RNA was extracted from the cells using Trizol reagent (Ambion), and mRNA levels of AGE receptor (FEEL-1, FEEL-2, CD-36, AGE-R1, AGE-R2, AGE-R3 and RAGE) and heat shock protein (Hsp104, gp96, Hsp90, Hsp70, Hsp60, and Hsp32) were measured by qRT-PCR (one-step quantitative reverse transcription-polymerase chain reaction) method.
# The measurement results for AGE receptor are shown in FIG. 1, and the measurement results for heat shock protein are shown in FIG. 2. In FIG. 1 and FIG. 2, for the co-existence group of AGE and VB, samples to which VB2 and VB3 were added are indicated as VB2(+)AGE and VB3(+)AGE, respectively, and these values were shown in comparison with the AGE single stimulation group. In addition, for the VB single stimulation group, samples to which VB2 and VB3 were added were indicated as VB2 alone and VB3 alone, respectively, and these values were shown in comparison with the untreated group.
# as §10
# As a PCR device, Thermal Cycler Dice Real Time System II manufactured by Takara was used. […]
# as §12
# [6] = added in advance before oxidative stress, compared with addition after
# [7] = added before or after 0.2 mM hydrogen peroxide
# [8] = added in advance before applying oxidative stress
substance,measurement,setting,value
K11H[(VO)3(SbW9O33)2] [VB2],ROS production,"intracellular ROS [1]; added before and after 0.2 mM hydrogen peroxide, 1-300 μg/mL",suppressed in a concentration-dependent manner
same,ROS production,"intracellular ROS [1]; treatment in advance before oxidative stress, compared with addition after",further suppressed
same,amount of hyaluronic acid,"hyaluronic acid; 0.2 mM hydrogen peroxide oxidative stress, culture supernatant",tended to be recovered
same,"hyaluronic acid repair ability, addition before vs after oxidative stress",hyaluronic acid; [6],tended to have a stronger repair ability
same,maximum cell viability,"[2]; added after 0.2 mM hydrogen peroxide, 300 μg/mL, % of Control (H2O2 only 59%)",76%
same,"cell viability, trend",[2]; added after 0.2 mM hydrogen peroxide,increased in a concentration-dependent manner
same,"cell viability, trend",[2]; added in advance before 0.2 mM hydrogen peroxide,significant increase in a concentration-dependent manner
same,SOD amount,SOD,tended to be recovered in a concentration-dependent manner
same,mRNA level of FEEL-1,FEEL-1,significantly increased
same,intracellular ROS under AGE stimulation,intracellular ROS [3],suppress the increase in ROS
same,mRNA level of AQP-1,AQP-1; [7],increased
same,"AQP-1 mRNA repair ability, addition before vs after oxidative stress",AQP-1; [6],tended to have a stronger repair ability
same,mRNA level of RAGE,RAGE,significantly increased
same,mRNA expression of AGE receptor,[4],did not affect
same,mRNA level of AQP-3,AQP-3; [7],increased
same,"AQP-3 mRNA repair ability, addition before vs after oxidative stress",AQP-3; [6],tended to have a stronger repair ability
same,Elastin production amount,Elastin; added after application of oxidative stress (H2O2 only 56% of Control),could not be recovered
same,Elastin production amount,Elastin; [8],significant recovery
same,concentration at which Elastin production amount was significantly higher than Control,Elastin; [8],≥ 100 µg/mL
same,mRNA level of FEEL-2,FEEL-2,significantly increased
same,mRNA expression of Hsp,"[5]; VB alone, no AGE, compared with untreated group",did not affect
same,mRNA levels of all Hsps other Hsp 90 among the examined Hsps,"[5]; co-existence with AGE 100 μg/mL, compared with AGE single stimulation group",significantly increased
